The values below come from patent US11181447B2, “Apparatus and method for determination of the fine particle dose of a powder inhalation formulation” (NANOPHARM LIMITED, priority 2016, dated 2021).

Each structure is given as a SMILES string.

The data set is described as follows: Paddle dissolution test (USP 711) of the aerosol dose collected on a filter in the apparatus of the invention. Conditions: drug loading 50-500 μg, surface coverage 3.89-38.92 μg/cm^2; 1, 2, 5 and 10 actuations; DPI and MDI. The data set is classed as physicochemical. The text has this: In accordance with one embodiment of the invention, collected particles are subjected to a dissolution test. Dissolution tests are widely practised in the art and the selection of suitable dissolution media and methods for particles collected from a given drug formulation are a routine matter for those skilled in the art. One such test, which may be expediently used, is the paddle dissolution test (US Pharmocopeial Convention 2011, 711, Dissolution, Paddle Apparatus). Illustrative commonly used dissolution media include e.g. phosphate buffered saline (PBS) solution either with or without the addition of a surfactant (e.g. Tween 20, Tween 80, SDS etc.). The solution can be chemically analysed, for example by HPLC, to determine the mass collected.
Collection of the samples of FIGS. 7A and 7B was accomplished in an apparatus according to FIG. 4 in which a glass microfibre filter (Pall Corporation, A/E filter) having a nominal filter pore size of 1 μm was used. The reference scale on each image of FIGS. 7A and 7B corresponds to 10 μm.
In each run, after the relevant number of doses had been delivered into the device, the filter was removed and the collected mass dissolved in phosphate buffered saline (PBS) solution using the paddle dissolution method (USP 711, 2011) and chemically analysed by HPLC to determine the mass collected. […]

For the molecule `CCC(=O)O[C@]1(C(=O)SCF)[C@H](C)C[C@H]2[C@@H]3C[C@H](F)C4=CC(=O)C=C[C@]4(C)[C@@]3(F)[C@@H](O)C[C@@]21C` [fluticasone propionate], the “dependence of dissolution release profiles on drug loading” value is given as “independent of drug loading”.
